The text below walks through data of ChEMBL document CHEMBL6096702, “Discovery of a Novel p38α-MK2 Complex Inhibitor as a Potential Choice for Autoimmune Diseases” (J Med Chem, 2025).

The structures appear in SMILES notation. Where only a bound is given, the exact number is not on record here.

The first data set in a line: Inhibition of N-terminal GST-tagged wildtype human P38alpha (4 to 152 residues) extracted from Escherichia coli/GST-tagged MK2 (unknown origin) assessed as reduction in HSP27 phosphorylation incubated for 2 hrs in presence of ATP and HSP27-FITC peptide by fluorescence polarization based IMAP assay.
Details: not given
For `Cc1cnc(-c2ccnc(C(C)(C)O)n2)cc1-n1c(C)cc(SCc2ncc(F)cc2F)c(Cl)c1=O`, the IC50 is 22.6 nM.

On to `Cc1nn(-c2ccnc(C(C)(C)O)n2)cc1-n1c(C)cc(OCc2ncc(F)cc2F)c(Cl)c1=O`, for which the IC50 was 1300 nM.

Take `Cc1cnc(-c2ccnc(C(C)(C)O)n2)c(F)c1-n1c(C)cc(O[C@@H](C)c2ncc(F)cc2F)c(C(C)C)c1=O`: the IC50 was determined as 92 nM.

Consider `Cc1cnc(-c2ccnc(C(C)(C)O)n2)cc1-n1ncc(OCc2ncc(F)cc2F)c(Cl)c1=O`, for which the IC50 is 1150 nM.

Regarding `Cc1ccc(C(C)(C)O)cc1-c1ncc(C)c(-n2c(C)cc(OCc3ncc(F)cc3F)c(Cl)c2=O)c1F`, the IC50 was determined as 62 nM.

For `C=Cc1c(O[C@@H](C)c2ncc(F)cc2F)cc(C)n(-c2c(C)cnc(-c3ccnc(C(C)(C)O)n3)c2F)c1=O`, the IC50 stood at 34 nM.

As to `Cc1cnc(-c2cc(C(C)(C)O)ccc2F)c(F)c1-n1c(C)cc(O[C@@H](C)c2ncc(F)cc2F)c(Cl)c1=O`, the IC50 turned out to be 61 nM.

For `Cc1cnc(-c2cccc(C(C)(C)O)c2C)c(F)c1-n1c(C)cc(OCc2ncc(F)cc2F)c(Cl)c1=O`, the IC50 came out at 68 nM.

In the case of `Cc1cnc(-c2ccnc(C(C)(C)O)n2)cc1-c1c(C)cc(OCc2ncc(F)cc2F)c(Cl)c1F`, the IC50 was greater than 10000 nM.

On to `Cc1cnc(-c2ccnc(C(C)(C)O)n2)cc1-c1c(C)cc(OCc2ncc(F)cc2F)c(Cl)[n+]1[O-]`, for which the IC50 is 83.9 nM.

Consider `Cc1cnc(-c2cccc(C(C)(C)O)c2F)cc1-n1c(C)cc(O[C@@H](C)c2ncc(F)cc2F)c(C)c1=O`, for which the IC50 amounted to 15.5 nM.

Regarding `Cc1ccc(-c2ccnc(C(C)(C)O)n2)cc1-n1c(C)cc(OCc2ncc(F)cc2F)c(Cl)c1=O`, the IC50 was found to be 3.6 nM.

In the case of `Cc1cnc(-c2ccnc(C(C)(C)O)n2)cc1-n1c(C)cc(O[C@@H](C)c2ncc(F)cc2F)c(Cl)c1=O`, the half-inhibitory concentration (IC50) is greater than 1000 nM.

`Cc1cnc(-c2ccnc(C(C)(C)O)n2)c(F)c1-n1c(C)cc(OCc2ncc(F)cc2F)c(C)c1=O`: the IC50 was 4 nM.

Take `Cc1cnc(-c2cccc(C(C)(C)O)n2)cc1-n1c(C)cc(OCc2ncc(F)cc2F)c(Cl)c1=O`: the IC50 was found to be 3 nM.

Take `Cc1cnc(-c2ccnc(C(C)(C)O)n2)cc1-n1c(C)cc(Oc2ncc(F)cc2F)c(Cl)c1=O`: the IC50 was greater than 10000 nM.

As for `Cc1cnc(-c2cccc(C(C)(C)O)c2F)c(C)c1-n1c(C)cc(O[C@@H](C)c2ncc(F)cc2F)c(Cl)c1=O`, the IC50 worked out at 12.8 nM.

As for `Cc1cnc(-c2ccnc(C(C)(C)O)n2)nc1-n1c(C)cc(OCc2ncc(F)cc2F)c(Cl)c1=O`, the IC50 was greater than 10000 nM.

For `CCc1c(O[C@@H](C)c2ncc(F)cc2F)cc(C)n(-c2c(C)cnc(-c3ccnc(C(C)(C)O)n3)c2F)c1=O`, the half-maximal inhibitory concentration (IC50) is 4 nM.

`Cc1cnc(-c2ccnc(C(C)(C)O)n2)cc1-c1c(C)cc(OCc2ncc(F)cc2F)c[n+]1[O-]`: the IC50 is greater than 10000 nM.

A further data set can be described thus: Inhibition of N-terminal GST-tagged wildtype human P38alpha (4 to 152 residues) extracted from Escherichia coli/GST-tagged PRAK (unknown origin) assessed as reduction in HSP27 phosphorylation incubated for 2 hrs in presence of ATP and HSP27-FITC peptide by fluorescence polarization based IMAP assay.
Details: not given
Consider `Cc1ccc(-c2ccnc(C(C)(C)O)n2)cc1-n1c(C)cc(OCc2ncc(F)cc2F)c(Cl)c1=O`, for which the IC50 was 2900 nM.

On to `Cc1cnc(-c2ccnc(C(C)(C)O)n2)c(F)c1-n1c(C)cc(OCc2ncc(F)cc2F)c(C)c1=O`, for which the IC50 came to 5320 nM.

As for `Cc1cnc(-c2cccc(C(C)(C)O)n2)cc1-n1c(C)cc(OCc2ncc(F)cc2F)c(Cl)c1=O`, the IC50 was determined as 999 nM.

Turning to `Cc1cnc(-c2cccc(C(C)(C)O)c2F)c(C)c1-n1c(C)cc(O[C@@H](C)c2ncc(F)cc2F)c(Cl)c1=O`, the IC50 was determined as 1400 nM.

The nature of a further data set: Selectivity ratio of IC50 for inhibition of N-terminal GST-tagged wildtype human P38alpha (4 to 152 residues) extracted from Escherichia coli/GST-tagged PRAK (unknown origin) to IC50 for inhibition of N-terminal GST-tagged wildtype human P38alpha (4 to 152 residues) extracted from Escherichia coli/GST-tagged MK2 (unknown origin).
Details: not given
In the case of `Cc1ccc(-c2ccnc(C(C)(C)O)n2)cc1-n1c(C)cc(OCc2ncc(F)cc2F)c(Cl)c1=O`, the Ratio IC50 is 805.

`Cc1cnc(-c2ccnc(C(C)(C)O)n2)c(F)c1-n1c(C)cc(OCc2ncc(F)cc2F)c(C)c1=O`: the Ratio IC50 was 1330.

For the compound `Cc1cnc(-c2cccc(C(C)(C)O)n2)cc1-n1c(C)cc(OCc2ncc(F)cc2F)c(Cl)c1=O`, the Ratio IC50 worked out at 333.

With `Cc1cnc(-c2cccc(C(C)(C)O)c2F)c(C)c1-n1c(C)cc(O[C@@H](C)c2ncc(F)cc2F)c(Cl)c1=O`, the Ratio IC50 was 109.

The next data set is described as follows: AUClast in male Sprague-Dawley rat at 1 mg/kg, iv measured after 24 hrs by LC-MS/MS analysis. The class given is ADME, organism-based. To be noted: in vivo.
Compound `Cc1cnc(-c2ccnc(C(C)(C)O)n2)c(F)c1-n1c(C)cc(OCc2ncc(F)cc2F)c(C)c1=O` gave an AUC(0-t) at 24 h of 1170 ng·h/mL.

The next data set is described as follows: Clearance in male Sprague-Dawley rat at 1 mg/kg, iv measured after 24 hrs by LC-MS/MS analysis. Type of data set: ADME, organism-based. To be noted: in vivo.
In turn, `Cc1cnc(-c2ccnc(C(C)(C)O)n2)c(F)c1-n1c(C)cc(OCc2ncc(F)cc2F)c(C)c1=O` had a clearance of 13.9 mL/min/kg.

A further data set can be described thus: Volume of distribution at steady state in male Sprague-Dawley rat at 1 mg/kg, iv measured after 24 hrs by LC-MS/MS analysis. The class given is ADME, organism-based. The conditions noted are these: in vivo, read-out: Vdss.
For `Cc1cnc(-c2ccnc(C(C)(C)O)n2)c(F)c1-n1c(C)cc(OCc2ncc(F)cc2F)c(C)c1=O`, the Vd is 0.9 L/kg.

Another data set is described as follows: Half-life in male Sprague-Dawley rat at 1 mg/kg, iv measured after 24 hrs by LC-MS/MS analysis. The class given is ADME, organism-based. To be noted: in vivo.
`Cc1cnc(-c2ccnc(C(C)(C)O)n2)c(F)c1-n1c(C)cc(OCc2ncc(F)cc2F)c(C)c1=O` gave a half-life of 0.9 h.

Another data set can be described thus: MRT in male Sprague-Dawley rat at 1 mg/kg, iv measured after 24 hrs by LC-MS/MS analysis. Type of data set: ADME, organism-based. To be noted: in vivo.
In turn, `Cc1cnc(-c2ccnc(C(C)(C)O)n2)c(F)c1-n1c(C)cc(OCc2ncc(F)cc2F)c(C)c1=O` gave an MRT of 1.1 h.

The nature of another data set: Cmax in male Sprague-Dawley rat at 2 mg/kg, po measured after 24 hrs by LC-MS/MS analysis. The conditions noted are these: in vivo. Type of data set: ADME, organism-based.
The compound `Cc1cnc(-c2ccnc(C(C)(C)O)n2)c(F)c1-n1c(C)cc(OCc2ncc(F)cc2F)c(C)c1=O` had a Cmax of 496 ng/mL.

A short description of the next data set: AUClast in male Sprague-Dawley rat at 2 mg/kg, po measured after 24 hrs by LC-MS/MS analysis. The class given is ADME, organism-based. To be noted: in vivo.
As to `Cc1cnc(-c2ccnc(C(C)(C)O)n2)c(F)c1-n1c(C)cc(OCc2ncc(F)cc2F)c(C)c1=O`, the AUC(0-t) at 24 h was 1310 ng·h/mL.

The nature of a further data set: Oral bioavailability in male Sprague-Dawley rat at 2 mg/kg measured after 24 hrs by LC-MS/MS analysis. The conditions noted are these: in vivo. The class given is ADME, organism-based.
Compound `Cc1cnc(-c2ccnc(C(C)(C)O)n2)c(F)c1-n1c(C)cc(OCc2ncc(F)cc2F)c(C)c1=O` displayed a bioavailability of 56%.
